Laboratory results published in PubChem BioAssay (NCI).
“And” between values parts separate entries of the source, which are not always exact repeats. Equal entries are not always repeated.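 Assay format: 96-well plates, 48-hour exposure. GI50 = concentration required for 50% inhibition of growth. TGI: concentration producing complete growth inhibition.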

What was measured:
Assay in all cases: NCI tumour cell line growth inhibition, 48 h
CCRF-CEM leukemia = tested on: CCRF-CEM leukemia
SF-295 CNS = tested on: SF-295 CNS
TK-10 renal = tested on: TK-10 renal
HOP-92 NSCLC = tested on: HOP-92 NSCLC
SN12C renal = tested on: SN12C renal
COLO 205 colon = tested on: COLO 205 colon
DU-145 prostate = tested on: DU-145 prostate
MOLT-4 leukemia = tested on: MOLT-4 leukemia
OVCAR-5 ovarian = tested on: OVCAR-5 ovarian
UACC-257 melanoma = tested on: UACC-257 melanoma

SMILES	GI50 (CCRF-CEM leukemia)	TGI (CCRF-CEM leukemia)	GI50 (SF-295 CNS)	TGI (SF-295 CNS)	GI50 (TK-10 renal)	TGI (TK-10 renal)	GI50 (HOP-92 NSCLC)	TGI (HOP-92 NSCLC)	GI50 (SN12C renal)	TGI (SN12C renal)	GI50 (COLO 205 colon)	TGI (COLO 205 colon)	GI50 (DU-145 prostate)	TGI (DU-145 prostate)	GI50 (MOLT-4 leukemia)	TGI (MOLT-4 leukemia)	GI50 (OVCAR-5 ovarian)	TGI (OVCAR-5 ovarian)	GI50 (UACC-257 melanoma)	TGI (UACC-257 melanoma)
O=C1CCC2=C3C4CCCCC4C(=O)C4CCCC(OC2C1)C34 (stereo not given)	1.34 µM	8.08 µM	2.49 µM	15.5 µM	6.36 µM	> 29.5 µM	2.43 µM	8.95 µM	0.849 µM	> 24.7 µM	17.7 µM	> 72.7 µM	0.357 µM	2.1 µM	0.457 µM	5.66 µM	> 20.6 µM	> 100 µM	1.65 µM	4.93 µM
COc1cc2c(Nc3ccc(Br)cc3F)ncnc2cc1OCC1CCN(C)CC1	4.71 µM and > 10 µM	17.5 µM and > 10 µM	5.39 µM and > 10 µM	15.3 µM and > 10 µM	0.317 µM and 0.54 µM	6.58 µM and > 10 µM	0.527 µM and 0.454 µM	4.07 µM and 6.91 µM	1.58 µM and 3.04 µM	12.1 µM and > 10 µM	3.6 µM and 4.33 µM	9.88 µM and > 10 µM	1.31 µM and 3.98 µM	15.1 µM and > 10 µM	3.97 µM and 9.42 µM	15.5 µM and > 10 µM	2.65 µM and 3.23 µM	18.7 µM and > 10 µM	1.85 µM and 1.73 µM	3.44 µM and 3.6 µM
COc1c(B(O)O)cccc1-c1nc2c(F)cc3[nH]ncc3c2c2c1CCCC2	0.633 µM	6.92 µM	2.23 µM	12.8 µM	0.0391 µM	> 38.4 µM	0.0184 µM	56.8 µM	1.24 µM	45 µM	1.61 µM	6.19 µM	2.18 µM	26.9 µM	0.844 µM	> 100 µM	2.65 µM	56.8 µM	3.37 µM	24 µM
